This note sets out measurements from patent publication US8101180B2, “Anti-IGF-IR and/or anti-insulin/IGF-I hybrid receptors antibodies and uses thereof” (Pierre Fabre Medicament, priority 2002, dated 2012).

Assay [1] has as its system MCF-7 cells. The assay can be described thus: Apoptosis of MCF-7 cells (Annexin V-FITC/DAPI flow cytometry). The class given is cell-based, human. As to conditions: doxorubicin 2 μg/ml, 24 hours, IGF-I 50 ng/ml. The method, then:
As indicated above, IGF-IR is capable of conferring protection against apoptosis when it is overexpressed on the surface of cells. […] In these experiments, the MCF-7 cells are inoculated at 2·10^4/cm^2 in Petri dishes and cultured for 24 h in RPMI without phenol red supplemented with 10% of fetal calf serum (FCS). The cells are then washed twice with PBS and put back into culture in medium with 0% FCS. They are allowed an adaptation time of 10 minutes at 37° C. before the addition of the antibodies at 10 μg/ml. After an extra 10 minutes at 37° C., recombinant IGF-I (Sigma) is added to the culture medium to a final concentration of 50 ng/ml. The cells are left at 37° C. again for one hour in order to allow the attachment of the antibodies and of the IGF-I. Finally, the doxorubicin (Sigma) is added to the culture medium at 2 μg/ml and the cells are incubated for 24 hours at 37° C.
The experiments have likewise been conducted with navelbine at a concentration of 10 μg/ml.
The analysis of the cell viability is carried out by flow cytometric analysis after labeling with the annexin V-FITC (20 minutes, 4° C.) and DAPI (2 μg/ml). The percentage of dead cells considered is the labeled population Annexin+/DAPI+. The antibody 5C2 is used as a control isotype.
(Flow cytometry measures light scatter and fluorescence of single cells or particles in a stream.)

Assay [2] concerns MCF-7 cells. The assay can be described thus: Cell cycle of MCF-7 cells with IGF1. In kind it is cell-based, human. The method, then: The inhibition of the cell growth observed in vitro on the line MCF-7 should be manifested by an effect on the cell cycle. In order to reply to this question, 4·10^5 cells are inoculated into 6-well plates. […] After incubation for 24 hours, the cells are recovered for the study of the cell cycle.

In another assay the test system is A549 tumor. The assay can be described thus: A549 non-small cell lung tumor subcutaneous xenograft. As to conditions: RDV, SDV […], 4 i.p. injections 7 days apart; conjugates […] agent and 250 μg/dose antibody. The class given is in vivo, nude mice. The method, then:
Navelbine is a chemotherapy compound indicated in non-small cell cancer of the lung and in metastatic cancer of the breast. […] For this study, 5·10^6 A549 cells were grafted subcutaneously on the right flank of the mouse. Five days after the cell graft, the tumors are measurable and the treatments with MAb and/or navelbine are commenced. The MAb dose is always 250 μg/dose/mouse, twice per week, intra-peritoneally. Concerning navelbine, it will be administered at the maximum dose tolerated by the mouse or 10 mg/kg, intraperitoneally. For this treatment three injections will be carried out at intervals of 7 days. During the coadministrations, the two products are mixed before injection.
For this study, nude mice are grafted s.c. with 5·10^6 A549 cells. Five days after the cell graft, the tumors are measured and a homogeneous batch of mice in terms of tumor volume is formed. Starting from this batch, groups of 6 mice are generated at random.
To do this, 5·10^6 A549 cells were implanted subcutaneously in nude mice. Five days after this implantation, the tumors were measured and groups of 6 mice were formed. […] This granule is essential to the establishment of any E2-dependent human tumor in this animal species.
These conjugates are administered according to the same modes as the groups given the chemotherapy compounds alone; • the animals of the control batch are given injections of PBS, administered according to the same frequency.
The weight of the mice and the tumor volume are evaluated twice a week. The tumor volumes are calculated according to the formula: ½ (length·width·height).

A further assay relates to P388 murine leukemia. The assay can be described thus: P388 murine leukemia grafted intravenously, survival (T/C). In kind it is in vivo, CDF1 mice. The method, then:
The compound is administered intraperitoneally in a single dose on day 1. The protocol for this test is described by Kruczynski A. et al., Cancer Chemotherapy and Pharmacology, 1998, volume 41, pages 437 to 447.
Conventionally, the in vivo activity of cytotoxic compounds is expressed by the T/C at a dose expressed in mg per kg. The T/C corresponds to the ratio, multiplied by 100, of the median of the survival time of the treated animals to the median of the survival time of the control animals.
The protocol for this test is described by Kruczynski A. et al., Cancer Chemotherapy and Pharmacology, 1998, volume 41, pages 437 to 447.
To do this, a total of 10^6 P388 murine leukemia cells were implanted i.v. in CDF1 mice on day 0. After randomization of the animals in cages for treatment with each alkaloid and control cages, the compounds were administered i.p. on day 1.
Conventionally, the in vivo activity of compounds is expressed by the increase in survival time. The survival time is expressed by the T/C at a dose expressed in mg per kg (mg/kg). The T/C corresponds to the ratio, multiplied by 100, of the median of the survival time of the treated animals to the median of the survival time of the control animals. In agreement with the standard criteria of the NCl, a T/C of 120 corresponds to a minimum level for concluding that activity is present.
A T/C below 75 expresses toxicity of the test compound at the dose administered.

[3] abbreviates: after addition of IGF1, 24 hours ([…] in the absence of IGF1).
Where [4] appears, read: dose 0.63 mg/kg i.p. single dose day 1, T/C = median survival treated/control ×100, below 75 = toxicity.
The mark [5] stands for this setting: dose 1.25 mg/kg i.p. single dose day 1.
Where [6] appears, read: dose 5 mg/kg i.p. single dose day 1.
The mark [7] stands for this setting: dose 10 mg/kg i.p. single dose day 1.

Regarding `COc1cccc2c1C(=O)c1c(O)c3c(c(O)c1C2=O)C[C@@](O)(C(=O)CO)C[C@@H]3O[C@H]1C[C@H](N)[C@H](O)[C@H](C)O1` [doxorubicin, reference compound], in the assay with MCF-7 cells [1], the “apoptosis, percentage of MCF-7 cells” value is recorded as 8%.

In the case of “IGF1: insulin-like growth factor 1, native ligand of IGF-IR”, the “proportion of MCF-7 cells in G2/M phase” value in the assay with MCF-7 cells [2] (after addition of IGF1, 24 hours (4% in the absence of IGF1)) was 12.7%. Besides, in the assay with MCF-7 cells [2] (setting [3]), the “proportion of MCF-7 cells in G0/G1 phase” value is 56.3% and the “proportion of MCF-7 cells in S phase” value is reported as 31%.

With `CC[C@@H]1C[C@@H]2CN(CCc3c([nH]c4ccccc34)[C@@](C(=O)OC)(c3cc4c(cc3OC)N(C)[C@H]3[C@@](O)(C(=O)OC)[C@H](OC(C)=O)[C@]5(CC)C=CCN6CC[C@]43[C@@H]65)C2)C1` [4′-S-deoxyvinblastine, 4′-S deoxyvinblastine], the “A549 tumor growth, deoxyvinblastines alone or coupled to h7C10” value with A549 tumor is “evolve in the same manner as the control group”. In addition, the T/C in the assay on P388 murine leukemia (setting [4]) worked out at 114; in the assay with P388 murine leukemia (setting [5]), 143; with P388 murine leukemia (setting [6]), 100; with P388 murine leukemia (setting [7]), 57.

As for `CC[C@]1(O)C[C@H]2CN(CCc3c([nH]c4ccccc34)[C@@](C(=O)OC)(c3cc4c(cc3OC)N(C=O)[C@H]3[C@@](O)(C(=O)OC)[C@H](OC(C)=O)[C@]5(CC)C=CCN6CC[C@]43[C@@H]65)C2)C1` [vincristine, reference compound], the T/C in the assay with P388 murine leukemia (setting [4]) turned out to be 114; in the assay with P388 murine leukemia (setting [5]), 143; in the assay on P388 murine leukemia (setting [6]), 100; in the assay with P388 murine leukemia (setting [7]), 57.

`CCC1CC2CN(CCc3c([nH]c4ccccc34)[C@@](C(=O)OC)(c3cc4c(cc3OC)N(C)[C@H]3C(O)(C(=O)OC)[C@H](OC(C)=O)[C@]5(CC)C=CCN6CC[C@]43[C@@H]65)C2)C1` (stereo partly drawn) [4′-R-deoxyvinblastine, 4′-R deoxyvinblastine]: in the assay with A549 tumor, the “A549 tumor growth, deoxyvinblastines alone or coupled to h7C10” value is given as “evolve in the same manner as the control group”. The T/C in the assay with P388 murine leukemia (setting [4]) was 100; in the assay on P388 murine leukemia (setting [5]), 100; with P388 murine leukemia (setting [6]), 143; in the assay with P388 murine leukemia (setting [7]) it was 200; in the assay with P388 murine leukemia (dose 20 mg/kg i.p. single dose day 1) it was 214; in the assay with P388 murine leukemia (dose 40 mg/kg i.p. single dose day 1), 43.

Consider `CC[C@]1(O)C[C@@H]2CN(CCc3c([nH]c4ccccc34)[C@@](C(=O)OC)(c3cc4c(cc3OC)N(C)[C@H]3[C@@](O)(C(=O)OC)[C@H](OC(C)=O)[C@]5(CC)C=CCN6CC[C@]43[C@@H]65)C2)C1` [vinblastine, reference compound], for which the T/C in the assay with P388 murine leukemia (setting [4]) amounted to 114; in the assay with P388 murine leukemia (setting [5]), 114; in the assay with P388 murine leukemia (setting [6]) it was 143; in the assay with P388 murine leukemia (setting [7]), 57.
